In PubChem BioAssay (NCI):
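Exposure lasted 48 hours, with cells grown in 96-well plates and compounds tested at five concentrations. GI50: concentration for 50% inhibition of growth. TGI: total growth inhibition.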

How the values were obtained:
Assay in all cases: NCI anticancer screen, dose series, 48 h
786-0 renal = system: 786-0 renal
A498 renal = system: A498 renal
A549 NSCLC = system: A549 NSCLC
BT-549 breast = system: BT-549 breast
CCRF-CEM leukemia = system: CCRF-CEM leukemia
COLO 205 colon = system: COLO 205 colon
DU-145 prostate = system: DU-145 prostate
EKVX NSCLC = system: EKVX NSCLC
HCC-2998 colon = system: HCC-2998 colon
HCT-116 colon = system: HCT-116 colon
HCT-15 colon = system: HCT-15 colon
HL-60(TB) leukemia = system: HL-60(TB) leukemia
HOP-62 NSCLC = system: HOP-62 NSCLC
HOP-92 NSCLC = system: HOP-92 NSCLC
HS 578T breast = system: HS 578T breast
HT29 colon = system: HT29 colon
IGROV1 ovarian = system: IGROV1 ovarian
K-562 leukemia = system: K-562 leukemia
KM12 colon = system: KM12 colon
LOX IMVI melanoma = system: LOX IMVI melanoma
M14 melanoma = system: M14 melanoma
MALME-3M melanoma = system: MALME-3M melanoma
MCF7 breast = system: MCF7 breast
MDA-MB-231 breast = system: MDA-MB-231 breast
MDA-MB-435 = system: MDA-MB-435
MOLT-4 leukemia = system: MOLT-4 leukemia
NCI-H226 lung = system: NCI-H226 lung
NCI-H23 lung = system: NCI-H23 lung
NCI-H460 lung = system: NCI-H460 lung
NCI-H522 lung = system: NCI-H522 lung
NCI/ADR-RES ovarian = system: NCI/ADR-RES ovarian
OVCAR-3 ovarian = system: OVCAR-3 ovarian
OVCAR-4 ovarian = system: OVCAR-4 ovarian
OVCAR-5 ovarian = system: OVCAR-5 ovarian
OVCAR-8 ovarian = system: OVCAR-8 ovarian
PC-3 prostate = system: PC-3 prostate
RPMI-8226 leukemia = system: RPMI-8226 leukemia
RXF 393 renal = system: RXF 393 renal
SF-268 CNS = system: SF-268 CNS
SF-295 CNS = system: SF-295 CNS
SF-539 CNS = system: SF-539 CNS
SK-MEL-2 melanoma = system: SK-MEL-2 melanoma
SK-MEL-28 melanoma = system: SK-MEL-28 melanoma
SK-MEL-5 melanoma = system: SK-MEL-5 melanoma
SK-OV-3 ovarian = system: SK-OV-3 ovarian
SN12C renal = system: SN12C renal
SNB-19 CNS = system: SNB-19 CNS
SNB-75 CNS = system: SNB-75 CNS
SR leukemia = system: SR leukemia
SW-620 colon = system: SW-620 colon
T-47D breast = system: T-47D breast
TK-10 renal = system: TK-10 renal
U251 CNS = system: U251 CNS
UACC-257 melanoma = system: UACC-257 melanoma
UACC-62 melanoma = system: UACC-62 melanoma
UO-31 renal = system: UO-31 renal

C=C1C(=O)O[C@H]2[C@H]1CC/C(COC(=O)/C=C/c1cccnc1)=C\CC[C@@]1(C)O[C@@H]21
GI50 (786-0 renal): 1100 nM
TGI (786-0 renal): 2580 nM
GI50 (A498 renal): 4.11 µM
TGI (A498 renal): 16.3 µM
GI50 (A549 NSCLC): 9.86 µM
TGI (A549 NSCLC): 23.6 µM
GI50 (BT-549 breast): 1180 nM
TGI (BT-549 breast): 2680 nM
GI50 (CCRF-CEM leukemia): 338 nM
TGI (CCRF-CEM leukemia): 3.73 µM
GI50 (COLO 205 colon): 1060 nM
TGI (COLO 205 colon): 2820 nM
GI50 (DU-145 prostate): 1390 nM
TGI (DU-145 prostate): 3.01 µM
GI50 (EKVX NSCLC): 3.28 µM
TGI (EKVX NSCLC): 14.3 µM
GI50 (HCC-2998 colon): 5.02 µM
TGI (HCC-2998 colon): 17.1 µM
GI50 (HCT-116 colon): 371 nM
TGI (HCT-116 colon): 1520 nM
GI50 (HCT-15 colon): 1110 nM
TGI (HCT-15 colon): 2710 nM
GI50 (HL-60(TB) leukemia): 741 nM
TGI (HL-60(TB) leukemia): 3.7 µM
GI50 (HOP-62 NSCLC): 11.5 µM
TGI (HOP-62 NSCLC): 24.6 µM
GI50 (HOP-92 NSCLC): 853 nM
TGI (HOP-92 NSCLC): 2740 nM
GI50 (HS 578T breast): 4.22 µM
TGI (HS 578T breast): 36 µM
GI50 (HT29 colon): 2230 nM
TGI (HT29 colon): 6.03 µM
GI50 (IGROV1 ovarian): 2070 nM
TGI (IGROV1 ovarian): 7.86 µM
GI50 (K-562 leukemia): 1040 nM
TGI (K-562 leukemia): 6.13 µM
GI50 (KM12 colon): 3.47 µM
TGI (KM12 colon): 13.2 µM
GI50 (LOX IMVI melanoma): 1550 nM
TGI (LOX IMVI melanoma): 2930 nM
GI50 (M14 melanoma): 1380 nM
TGI (M14 melanoma): 3.23 µM
GI50 (MALME-3M melanoma): 1690 nM
TGI (MALME-3M melanoma): 3.63 µM
GI50 (MCF7 breast): 748 nM
TGI (MCF7 breast): 2720 nM
GI50 (MDA-MB-231 breast): 2000 nM
TGI (MDA-MB-231 breast): 5.04 µM
GI50 (MDA-MB-435): 1830 nM
TGI (MDA-MB-435): 5.14 µM
GI50 (MOLT-4 leukemia): 1750 nM
TGI (MOLT-4 leukemia): 4.9 µM
GI50 (NCI-H226 lung): 2680 nM
TGI (NCI-H226 lung): 9.98 µM
GI50 (NCI-H23 lung): 3.42 µM
TGI (NCI-H23 lung): 15.4 µM
GI50 (NCI-H460 lung): 5.12 µM
TGI (NCI-H460 lung): 20 µM
GI50 (NCI-H522 lung): 1330 nM
TGI (NCI-H522 lung): 3.48 µM
GI50 (NCI/ADR-RES ovarian): 3.3 µM
TGI (NCI/ADR-RES ovarian): 14.1 µM
GI50 (OVCAR-3 ovarian): 494 nM
TGI (OVCAR-3 ovarian): 1760 nM
GI50 (OVCAR-4 ovarian): 3.96 µM
TGI (OVCAR-4 ovarian): 16.9 µM
GI50 (OVCAR-5 ovarian): 2110 nM
TGI (OVCAR-5 ovarian): 5.94 µM
GI50 (OVCAR-8 ovarian): 3.85 µM
TGI (OVCAR-8 ovarian): 13.9 µM
GI50 (PC-3 prostate): 8.28 µM
TGI (PC-3 prostate): 22.1 µM
GI50 (RPMI-8226 leukemia): 1900 nM
TGI (RPMI-8226 leukemia): 6.15 µM
GI50 (RXF 393 renal): 750 nM
TGI (RXF 393 renal): 2150 nM
GI50 (SF-268 CNS): 4.63 µM
TGI (SF-268 CNS): 18.4 µM
GI50 (SF-295 CNS): 10.6 µM
TGI (SF-295 CNS): 23.1 µM
GI50 (SF-539 CNS): 1500 nM
TGI (SF-539 CNS): 2970 nM
GI50 (SK-MEL-2 melanoma): 3.88 µM
TGI (SK-MEL-2 melanoma): 12.7 µM
GI50 (SK-MEL-28 melanoma): 1260 nM
TGI (SK-MEL-28 melanoma): 2610 nM
GI50 (SK-MEL-5 melanoma): 3.37 µM
TGI (SK-MEL-5 melanoma): 12.6 µM
GI50 (SK-OV-3 ovarian): 16.4 µM
TGI (SK-OV-3 ovarian): 53 µM
GI50 (SN12C renal): 2380 nM
TGI (SN12C renal): 7.92 µM
GI50 (SNB-19 CNS): 9.05 µM
TGI (SNB-19 CNS): 28.4 µM
GI50 (SNB-75 CNS): 11.3 µM
TGI (SNB-75 CNS): 24.1 µM
GI50 (SR leukemia): 1570 nM
TGI (SR leukemia): 7.01 µM
GI50 (SW-620 colon): 467 nM
TGI (SW-620 colon): 2350 nM
GI50 (T-47D breast): 1880 nM
TGI (T-47D breast): 5.12 µM
GI50 (TK-10 renal): 2010 nM
TGI (TK-10 renal): 4.06 µM
GI50 (U251 CNS): 5.74 µM
TGI (U251 CNS): 18.3 µM
GI50 (UACC-257 melanoma): 1730 nM
TGI (UACC-257 melanoma): 3.54 µM
GI50 (UACC-62 melanoma): 1890 nM
TGI (UACC-62 melanoma): 5 µM
GI50 (UO-31 renal): 1110 nM
TGI (UO-31 renal): 2510 nM
